ChEMBL document CHEMBL6103633 (J Med Chem, 2025)
Active and inactive are the calls of the source. No cut-off for these calls is given here.

What was measured:
[1] = target: T1, Ornithine decarboxylase (Homo sapiens) (UniProt P11926); experiment: Inhibition of full length C-terminal his-6 tagged human ODC extracted from Escherichia coli BL21 (DE3) cells at 50 uM incubated for 30 mins by liquid scintillation analysis relative to control
T1 sequence (whole entry): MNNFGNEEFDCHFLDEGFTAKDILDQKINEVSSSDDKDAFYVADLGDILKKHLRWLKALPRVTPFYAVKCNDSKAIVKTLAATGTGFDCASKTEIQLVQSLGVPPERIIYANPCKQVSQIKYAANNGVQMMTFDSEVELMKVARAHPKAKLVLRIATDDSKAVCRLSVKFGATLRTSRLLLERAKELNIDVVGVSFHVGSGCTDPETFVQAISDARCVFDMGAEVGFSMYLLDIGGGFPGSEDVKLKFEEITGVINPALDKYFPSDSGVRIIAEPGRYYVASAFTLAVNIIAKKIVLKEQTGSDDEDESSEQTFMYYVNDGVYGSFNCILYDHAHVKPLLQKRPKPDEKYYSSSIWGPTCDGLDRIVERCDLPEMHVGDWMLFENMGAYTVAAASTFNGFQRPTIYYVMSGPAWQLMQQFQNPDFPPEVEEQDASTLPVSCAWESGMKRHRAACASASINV

[2] = target: T1, Ornithine decarboxylase (Homo sapiens); experiment: Inhibition of ODC in human Kelly cells assessed as reduction in spermidine level at 500 microM incubated for 20 min by HPLC analysis; type: cell-based
[3] = target: T1, Ornithine decarboxylase (Homo sapiens); experiment: Inhibition of ODC in human Kelly cells at 500 uM incubated for 2 hrs by liquid scintillation analysis; type: cell-based
[4] = target: T1, Ornithine decarboxylase (Homo sapiens); experiment: Inhibition of human ODC in human Kelly cells assessed as effect on putrescine level at 500 microM incubated for 20 min by HPLC analysis; type: cell-based
[5] = target: T1, Ornithine decarboxylase (Homo sapiens); experiment: Inhibition of human ODC in human Kelly cells assessed as reduction in spermine level at 500 microM incubated for 20 min by HPLC analysis; type: cell-based
[6] = Dissociation constant, pKa of the compound; type: physicochemical
[7] = Cytotoxicity against Normal primary human neonatal fibroblast cell at 500 uM incubated for 72 hrs by SRB assay relative to control; type: toxicity, cell-based

Row | SMILES | inhibition [2] | inhibition [3] | inhibition [4] | inhibition [5] | further results
1 | NOCC1CNC1 |  |  |  |  | inhibition [1]: 0%
2 | Cc1ncc(COP(=O)(O)O)c(/C=N/OCCCN)c1O |  |  |  |  | pKa [6]: ~5.9
3 | NOC[C@@H]1CCCNC1 |  |  |  |  | Activity [7]: 0%
4 | NOC[C@H]1CCCNC1 |  |  |  |  | Activity [7]: 0%
5 | NCCC[C@](N)(C(=O)O)C(F)F | Active | Active | inactive | Active | 

Further lines, with some results ahead:

Row | inhibition [2] | inhibition [3] | inhibition [4] | inhibition [5] | SMILES | further results
6 | Active | Active | inactive | Active | NCCCON | 
7 | Active | Active | inactive | Active | NOCC1(F)CCNC1 (racemic) | 
